The target in one data set is T1, SHP2 C‐SH2 domain (Homo sapiens, UniProt Q06124).
T1 construct: SHP2 N-SH2 domain (1–105), C-SH2 domain (106–220), PTP domain (224–541) and; His6 (pETM22 vector) (N, cleaved yes); made in house; host or cells: E. coli BL21(DE3)
T1 sequence (Q06124 106-220): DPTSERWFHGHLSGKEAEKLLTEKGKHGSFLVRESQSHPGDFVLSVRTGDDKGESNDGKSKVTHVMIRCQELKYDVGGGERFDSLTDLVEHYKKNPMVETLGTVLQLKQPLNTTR
The experiment in a line: Fluorescence polarization (FP) binding assay, SHP2 C-SH2 domain. Particulars: 100 nM FAM-labelled peptide, increasing C-SH2 protein, 50 mM HEPES pH 7.5, 150 mM NaCl, 1 mM EDTA, 0.05% Tween 20, FP at 10 min, three independent experiments in technical triplicates, read-out: K D ± SEM, C‐SH2 (FP). As to the method: (§1) buffer and stored in 5 mL binding buffer at 4°C. His-tagged 3C protease (0.5 mg; EMBL) was added to the pooled eluted fractions and dialysed using Spectra Por Dialysis Tubing (MWCO 6-8 kDa, 23 mm; Spectrum Labs) in 1 L of binding buffer at 4°C for 3 hours, then overnight in fresh buffer. A new column was prepared by loading 2 mL Ni-NTA Agarose (Invitrogen) as a 50% slurry in EtOH. The column was washed with 10 mL H2O to remove the EtOH and equilibrated with 10 mL binding buffer. The protein/3C protease mixture was loaded onto the column and incubated for 1 hour at 4°C on a rocker. The flow through containing the protein was collected, the column was washed with 100 mL binding buffer and the 3C protease was eluted with 5 mL elution buffer. Protein purification was monitored by SDS-PAGE using NuPAGE 4-12% Bis-Tris Protein Gels (Invitrogen) run in MOPS buffer (50 mM MOPS, 50 mM Tris-HCl pH 7.7, 1 mM EDTA, 0.1% SDS) followed by Coomassie staining using Coomassie Brilliant Blue (Roth). The purified protein was dialysed into the final storage buffer (50 mM HEPES pH 7.5, 150 mM NaCl, 2 mM DTT, 20% glycerol). Aliquots were prepared and stored at -80°C until required. […]
(§2) 4. Fluorescence polarization
(§3) Fluorescence polarization (FP) was used to measure the binding of FAM-labelled peptides to the SHP2 C-SH2, SHP2 N-SH2, SHP2 PTP, CSK SH2 or Src SH2 domains. Each peptide was added to increasing concentrations of SHP2 C-SH2, SHP2 N-SH2, SHP2 PTP, CSK SH2 or Src SH2 protein in FP buffer (50 mM HEPES pH 7.5, 150 mM NaCl, 1 mM EDTA, 0.05% Tween 20) to give a final peptide […]
(§4) concentration of 100 nM in a final volume of 200 µL. For baseline subtraction, each peptide was added to FP buffer, instead of protein, with a final peptide concentration of 100 nM in a final volume of 200 µL. Samples were mixed gently then 3 x 60 µL of each sample was transferred into triplicate wells in a 96-well plate (OptiPlate-96 F Black; PerkinElmer). The FP was immediately measured on a Synergy H1 Microplate Reader (BioTek) with the excitation and emission monitored at 485 nm and 528 nm, respectively, over 30 minutes. FP values were automatically calculated by the Gen5 3.03 (BioTek) software associated with the microplate reader. Data were analysed in Excel 2016 by subtracting baseline values from FP values at 10 minutes. Data were then further analysed in GraphPad Prism 6 by plotting the baseline subtracted FP values against the protein concentration and fitting the data to a variable slope model of non-linear regression to obtain the KD values. Data are from three independent experiments, each performed in technical triplicates.
(§5) 5. Isothermal titration calorimetry […]
(§6) Analysis Software (Malvern Panalytical). For the data analysis, a 1:1 binding stoichiometry between the Ac-ITSM(pTyr) and SH2 domain was assumed. ITC measurements were performed once.

The target of the next data set is T2, SHP2 N‐SH2 domain (Homo sapiens, UniProt Q06124).
T2 construct: SHP2 N-SH2 domain (1–105), C-SH2 domain (106–220), PTP domain (224–541) and; His6 (pETM22 vector) (N, cleaved yes); made in house; host or cells: E. coli BL21(DE3)
T2 sequence (Q06124 1-105): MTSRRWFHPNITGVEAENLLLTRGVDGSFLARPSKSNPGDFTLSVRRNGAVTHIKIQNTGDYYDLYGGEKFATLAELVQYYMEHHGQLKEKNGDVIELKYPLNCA
In words: Fluorescence polarization (FP) binding assay, SHP2 N-SH2 domain. The note with it: 100 nM FAM-labelled peptide, increasing N-SH2 protein, 50 mM HEPES pH 7.5, 150 mM NaCl, 1 mM EDTA, 0.05% Tween 20, FP at 10 min, three independent experiments in technical triplicates, read-out: K D ± SEM, N‐SH2 (FP). As to the method: as §1, §2, §3, §4, §5, §6
Background: In fluorescence polarisation assays a small probe gives low polarisation when free and higher when bound to something large.

A short description of data set [1]: Peptide stability in Jurkat cell lysate (LC-MS). The data set is classed as in vitro ADME. The note with it: 200 µM peptide, WT Jurkat T cell lysate (RIPA buffer with protease inhibitor cocktail), 37 °C in the dark, 0, 6 or 24 h, peak area at 254 nm normalised to FAM (200 µM) internal control, three independent experiments. As to the method: 1. Cell culture and cell lines
Jurkat T cells were cultured in RPMI 1640 GlutaMAX (Thermo Fisher Scientific) supplemented with 10% heat-inactivated fetal bovine serum (FBS; Thermo Fisher Scientific), 100 U/mL penicillin (Sigma-Aldrich) and 100 µg/mL streptomycin (Sigma-Aldrich). HeLa cells were cultured in DMEM low glucose GlutaMAX (Thermo Fisher Scientific) supplemented with 10% fetal bovine serum (FBS; Thermo Fisher Scientific), 100 U/mL penicillin (Sigma-Aldrich) and 100 µg/mL streptomycin (Sigma-Aldrich).
Both cell lines tested negative for mycoplasma contamination.
2. Peptide stability in Jurkat cell lysate
The stability of FAM-labelled peptide 26 in WT Jurkat T cell lysate was evaluated by LC-MS. 106 Jurkat cells were washed with 1 mL PBS and lysed in 1 mL ice-cold RIPA buffer (25 mM Tris-HCl pH 7.5, 150 mM NaCl, 1% Nonidet P-40, 1% sodium deoxycholate, 0.1% SDS) containing cOmplete EDTA-free Protease Inhibitor Cocktail (Roche), on ice for 30 minutes vortexing every 10 minutes. Cell lysate was centrifuged at 20000 x g for 20 minutes at 4°C. […] The supernatant was collected on ice, filtered using a 13 mm syringe filter with a 0.2 µm PTFE membrane (Pall Life Sciences) and analysed by analytical HPLC-MS. The area under the peak at 254 nm corresponding to peptide 26 and FAM was determined. […]

Each structure is given as a SMILES string. Residues, ends and D or L forms follow the SMILES beside them. *: point of attachment. 5FAM = O=C1OC2(c3ccc(O)cc3Oc3cc(O)ccc32)c2ccc(C(=O)*)cc21; X1 = O=C(O)C(C(=O)O)* Bounds are passed on as bounds.

For `CC[C@H](C)[C@H](NC(=O)[C@@H](NC(=O)[C@H](C)NC(=O)[C@H](Cc1ccc(OC(C(=O)O)C(=O)O)cc1)NC(=O)[C@H](CCC(=O)O)NC(=O)[C@@H](NC(=O)[C@H](CCC(N)=O)NC(=O)c1ccc2c(c1)C(=O)OC21c2ccc(O)cc2Oc2cc(O)ccc21)[C@@H](C)O)[C@@H](C)O)C(=O)N[C@@H](CCCCN)C(=O)N[C@@H](Cc1c[nH]cn1)C(=O)N1CCC[C@H]1C(N)=O` [peptide 26] (5FAM-QTEY(X1)ATIKHP-NH2), the Kd on SHP2 C‐SH2 domain is 1600 ± 388 nM; at SHP2 N‐SH2 domain, greater than 32000 nM. Moreover, the “stability in Jurkat T cell lysate” value in data set [1] is reported as “stable”.

The values above are taken from publication PMC12118337, “Development of a Peptide Inhibitor Targeting the C‐SH2 Domain of the SHP2 Phosphatase” (Chembiochem, 2025).
